Measurements from ChEMBL document CHEMBL1139552, “Naphthamidine urokinase plasminogen activator inhibitors with improved pharmacokinetic properties” (Bioorg Med Chem Lett, 2005).

How the values were obtained:
[1] = Area under the curve time curve value in sprague dawley rat was determined at a dosage of 3 mg/kg; type: ADME, organism-based; parameters: dose 3 mg/kg; details: in vivo
[2] = Terminal half life value in sprague dawley rat was determined at a dosage of 3 mg/kg; type: ADME, organism-based; parameters: dose 3 mg/kg; details: in vivo
[3] = Bioavailability in rat (Sprague-Dawley) (dose 10 mg/kg); type: ADME, organism-based; details: in vivo
[4] = Volume distribution value in sprague dawley rat was determined at a dosage of 3 mg/kg; type: ADME, organism-based; parameters: dose 3 mg/kg; details: in vivo
in vivo = details: Sprague-Dawley, rat, 3 mg/kg
Description: (§1) Clearance value in sprague dawley rat was determined at a dosage of 3 mg/kg

Plasminogen = Plasminogen (Homo sapiens, UniProt P00747); assay: Binding affinity value against plasmin
Trypsin = Trypsin (Sus scrofa, UniProt P00761); assay: Binding affinity value against trypsin
[5] = Binding affinity value against thrombin
[6] = target: Tissue-type plasminogen activator (Homo sapiens, UniProt P00750); assay: Binding affinity value against Tissue plasminogen activator
Kallikrein-1 = Kallikrein-1 (Homo sapiens, UniProt P06870)
Description: Binding affinity value against kallikrein

[7] = target: Urokinase-type plasminogen activator (Homo sapiens, UniProt P00749)
Description: Binding affinity value against urokinase plasminogen activator

[8] = Area under the curve time curve value in sprague dawley rat was determined at a intravenous dosage of 10 mg/kg; type: ADME, organism-based; parameters: dose 10 mg/kg, route intravenous; details: in vivo
[9] = Volume distribution value in sprague dawley rat was determined at a intravenous dosage of 10 mg/kg; type: ADME, organism-based; parameters: dose 10 mg/kg, route intravenous; details: in vivo
[10] = Sprague-Dawley, rat, in vivo, 3 mg/kg
Description: as §1

[11] = Bioavailability in sprague dawley rat was determined at a dosage of 3 mg/kg; NT means not tested; type: ADME, organism-based; details: in vivo

Kallikrein-1, sequence (P06870 whole entry): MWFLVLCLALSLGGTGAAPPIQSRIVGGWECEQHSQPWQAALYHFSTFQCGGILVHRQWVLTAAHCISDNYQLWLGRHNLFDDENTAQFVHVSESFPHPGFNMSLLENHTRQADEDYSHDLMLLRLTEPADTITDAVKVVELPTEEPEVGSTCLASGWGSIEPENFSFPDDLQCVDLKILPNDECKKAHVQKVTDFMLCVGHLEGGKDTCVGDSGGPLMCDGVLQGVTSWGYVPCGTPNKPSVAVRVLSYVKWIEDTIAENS
Tissue-type plasminogen activator, sequence (P00750 whole entry): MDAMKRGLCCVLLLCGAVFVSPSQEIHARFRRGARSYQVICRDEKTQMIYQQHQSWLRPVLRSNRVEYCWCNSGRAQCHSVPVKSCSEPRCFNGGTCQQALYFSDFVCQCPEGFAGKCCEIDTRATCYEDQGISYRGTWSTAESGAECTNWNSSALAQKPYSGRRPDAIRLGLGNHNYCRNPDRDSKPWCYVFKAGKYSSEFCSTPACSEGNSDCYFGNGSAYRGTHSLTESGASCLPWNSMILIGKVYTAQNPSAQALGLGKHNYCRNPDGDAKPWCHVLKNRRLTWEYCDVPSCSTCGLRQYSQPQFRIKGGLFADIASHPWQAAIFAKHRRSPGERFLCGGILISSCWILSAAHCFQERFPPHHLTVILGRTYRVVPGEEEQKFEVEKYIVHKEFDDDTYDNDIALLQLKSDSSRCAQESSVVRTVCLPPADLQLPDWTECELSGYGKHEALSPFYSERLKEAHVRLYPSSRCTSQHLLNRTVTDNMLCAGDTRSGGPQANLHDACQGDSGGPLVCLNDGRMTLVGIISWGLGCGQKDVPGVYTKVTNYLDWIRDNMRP
Plasminogen, sequence (P00747 97-580 limits assumed): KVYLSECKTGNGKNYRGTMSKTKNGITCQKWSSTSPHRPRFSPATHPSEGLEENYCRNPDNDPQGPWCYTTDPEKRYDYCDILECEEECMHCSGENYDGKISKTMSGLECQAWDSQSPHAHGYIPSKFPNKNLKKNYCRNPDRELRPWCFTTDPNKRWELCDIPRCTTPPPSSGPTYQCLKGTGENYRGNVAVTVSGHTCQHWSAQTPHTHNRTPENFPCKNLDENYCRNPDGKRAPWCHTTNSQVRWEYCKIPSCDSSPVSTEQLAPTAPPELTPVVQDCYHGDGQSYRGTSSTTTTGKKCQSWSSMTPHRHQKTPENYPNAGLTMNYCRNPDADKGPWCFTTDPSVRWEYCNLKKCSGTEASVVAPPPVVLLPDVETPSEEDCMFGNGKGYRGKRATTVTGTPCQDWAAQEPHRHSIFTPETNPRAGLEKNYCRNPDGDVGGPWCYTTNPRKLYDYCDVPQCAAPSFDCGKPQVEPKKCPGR
Plasminogen, sequence (P00747 581-810 limits assumed): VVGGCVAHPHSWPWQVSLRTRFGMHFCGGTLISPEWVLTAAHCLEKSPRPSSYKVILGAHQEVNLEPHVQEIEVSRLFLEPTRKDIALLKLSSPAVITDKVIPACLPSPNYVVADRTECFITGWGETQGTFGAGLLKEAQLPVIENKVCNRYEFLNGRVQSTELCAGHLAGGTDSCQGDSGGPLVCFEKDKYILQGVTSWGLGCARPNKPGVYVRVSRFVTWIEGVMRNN
Trypsin, sequence (P00761 whole entry): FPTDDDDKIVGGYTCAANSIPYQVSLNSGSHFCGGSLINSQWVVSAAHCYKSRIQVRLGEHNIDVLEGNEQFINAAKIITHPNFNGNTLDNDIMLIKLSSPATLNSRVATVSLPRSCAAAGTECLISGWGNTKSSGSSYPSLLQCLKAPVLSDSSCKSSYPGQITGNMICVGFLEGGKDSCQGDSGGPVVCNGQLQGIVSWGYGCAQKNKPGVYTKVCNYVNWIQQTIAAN

Row | Structure (SMILES) | AUC ([1]; Sprague-Dawley, read-out: AUC) [µM·h] | half-life [2] [min] | bioavailability [3] [%] | Vd [4] [L/kg] | clearance (in vivo) [mL/min/kg] | Ki (Plasminogen) [nM] | Ki (Trypsin) [nM] | Ki [5] [nM] | Ki [6] [µM] | Ki (Kallikrein-1) [nM] | Ki [7] [nM] | AUC [8] [µM·h] | Vd [9] [L/kg] | AUC [1] [µM·h] | CI [10] [L/h/kg] | AUC [11] [µM·h]
1 | N=C(N)c1ccc2cc(CCc3ccccc3)cc(Br)c2c1 | 1.75 | 198 | > 32 | 18 | 63.3 |  |  |  |  |  |  |  |  |  |  | 
2 | N=C(N)c1ccc2cc(C3CC3c3ccc4c(c3)C(C3CCCCC3)=NCC4)ccc2c1 (stereo not drawn) | 0.57 | 16.2 | 22 | 4.5 | 192 | 594 | 428 | 1140 | 4.02 | 206 |  |  |  |  |  | 
3 | CN1CCc2ccc(C3CC3c3ccc4cc(C(=N)N)ccc4c3)cc2C1C(C)(C)C (stereo not drawn) |  |  |  |  |  |  |  |  |  |  | 548 |  |  |  |  | 
4 | N=C(N)c1ccc2cc(/C=C/c3ccccc3)cc(Nc3ncccn3)c2c1 |  |  |  |  |  | 277 | 84 | 395 | > 50 | 42 | 10 |  |  |  |  | 
5 | N=C(N)c1ccc2cc(/C=C/c3ccccc3)cc(-c3ccoc3)c2c1 |  | 37.2 | 0 |  | 21.7 | 134 | 96 | 237 | 4.46 | 83 | 168 | 5.8 | 1.2 |  |  | 
6 | N=C(N)c1ccc2cc(C3CC3c3ccccc3)cc(-c3ccoc3)c2c1 (stereo not drawn) |  |  | 10 | 2.4 |  |  |  |  |  |  |  |  |  | 14.5 | 4.2 | 
7 | N=C(N)c1ccc2cc(CCc3ccccc3)cc(Nc3ncccn3)c2c1 |  | 120 | 0 | 13.6 |  | 570 | 167 | 191 | 5.79 | 156 |  |  |  | 4.2 | 4.7 | 
8 | CC(C)C1=NCCc2ccc(C3CC3c3ccc4cc(C(=N)N)ccc4c3)cc21 (stereo not drawn) | 0.51 | 79.8 | 26 | 18.6 | 161 | 1050 | 53 | 2140 | 4.74 | 525 |  |  |  |  |  | 
9 | N=C(N)c1ccc2cc(CCc3ccccc3)cc(-c3ccoc3)c2c1 |  |  | 18 | 1.53 |  |  |  |  |  |  | 731 |  |  | 17.6 | 3.31 | 
10 | N=C(N)c1ccc2cc(C(=O)Nc3ccccc3)cc(Br)c2c1 |  | 63 | 0 | 18.7 | 205 | 1020 | 64 | 2660 | 5.59 | 992 | 281 |  |  |  |  | 0.6
11 | N=C(N)c1ccc2cc(/C=C/c3ccccc3)ccc2c1 |  |  |  |  |  |  | 346 | 5270 | 34.6 | 991 |  |  |  |  |  | 
12 | N=C(N)c1ccc2cc(CCc3ccccc3)ccc2c1 | 1.14 | 60 | 60 | 9.8 | 113 |  |  |  |  |  | 3180 |  |  |  |  | 
13 | CC(C)Oc1cccc(C2CC2c2ccc3cc(C(=N)N)ccc3c2)c1 (stereo not drawn) | 3.48 | 355 | 23 | 19.3 | 37.7 | 2450 | 141 | 1100 | 21.9 | 1400 |  |  |  |  |  | 
